ChEMBL document CHEMBL5113373, “Tryptophan derived natural marine alkaloids and synthetic derivatives as promising antimicrobial agents” (Eur J Med Chem, 2021)
In brackets after ≈: the same amount, converted by molar mass.

How the values were obtained:
[1] = system: Candida albicans; test: Antifungal activity against Candida albicans assessed as fungal growth inhibition; assay type: functional, organism-based
[2] = system: Trichophyton mentagrophytes; test: Antifungal activity against Trichophyton mentagrophytes assessed as fungal growth inhibition; assay type: functional, organism-based
[3] = system: Aspergillus niger; test: Antifungal activity against Aspergillus niger assessed as fungal growth inhibition; assay type: functional, organism-based
[4] = system: Cryptococcus neoformans; test: Antifungal activity against Cryptococcus neoformans assessed as fungal growth inhibition; assay type: functional, organism-based
[5] = system: Hepatitis C virus; test: Antiviral activity against HCV J8CC infected in human Huh7.5 cells assessed as viral growth inhibition incubated for 48 hrs by light microscopy; assay type: functional, organism-based, Hepacivirus hominis; details: Huh7.5, 48 h
[6] = system: Escherichia coli; test: Antimicrobial activity against Escherichia coli assessed as microbial growth inhibition by microdilution method; assay type: functional
[7] = system: Staphylococcus aureus; test: Antimicrobial activity against methicillin-resistant Staphylococcus aureus assessed as microbial growth inhibition by broth microdilution method; assay type: functional
[8] = system: Candida albicans; test: Antimicrobial activity against Candida albicans assessed as microbial growth inhibition by microdilution method; assay type: functional
[9] = system: Pseudomonas aeruginosa; test: Antibacterial activity against Pseudomonas aeruginosa ATCC 9027 assessed as bacterial growth inhibition incubated for 24 hrs by agar diffusion method; assay type: functional
[10] = system: Candida albicans; test: Antifungal activity against Candida albicans ATCC 2091 assessed as fungal growth inhibition incubated for 24 hrs by agar diffusion method; assay type: functional
[11] = system: Staphylococcus aureus; test: Antibacterial activity against Staphylococcus aureus ATCC 6538 assessed as bacterial growth inhibition incubated for 24 hrs by agar diffusion method; assay type: functional
[12] = system: Staphylococcus aureus; test: Antibiofilm activity against Methicillin-resistant Staphylococcus aureus B1 assessed as inhibition of biofilm formation measured after 24 to 48 hrs by MTT assay; assay type: functional; details: time 24-48 hrs
[13] = system: Enterococcus faecalis; test: Antibiofilm activity against Vancomycin-resistant Enterococcus faecalis W1 assessed as inhibition of biofilm formation measured after 24 to 48 hrs by MTT assay; assay type: functional; details: time 24-48 hrs
[14] = system: Saccharomyces cerevisiae; test: Antifungal activity against Saccharomyces cerevisiae assessed as fungal growth inhibition; assay type: functional, organism-based
[15] = system: Micrococcus luteus; test: Antibacterial activity against Micrococcus luteus assessed as bacterial growth inhibition; assay type: functional, organism-based
[16] = system: Mycolicibacterium phlei; test: Antibacterial activity against Mycobacterium phlei assessed as bacterial growth inhibition; assay type: functional, organism-based
[17] = system: Mycobacterium tuberculosis; test: Antibacterial activity against […] assessed as bacterial growth inhibition; assay type: functional
[18] = system: Staphylococcus aureus; test: Antibacterial activity against Staphylococcus aureus assessed as bacterial growth inhibition; assay type: functional, organism-based
[19] = system: Vibrio natriegens; test: Antimicrobial activity against Vibrio natriegens ATCC 14048 assessed as inhibition of bacterial adhesion incubated for 48 hrs by crystal staining method; assay type: functional
[20] = system: Vibrio natriegens; test: Antimicrobial activity against Vibrio natriegens ATCC 14048 assessed as microbial growth inhibition incubated for 48 hrs by spectrophotometry; assay type: functional
[21] = system: Candida albicans; test: Antimicrobial activity against Candida albicans ATCC 14053 assessed as zone of inhibition incubated for 24 hrs by disc diffusion method; assay type: functional
[22] = system: Staphylococcus aureus; test: Antimicrobial activity against Staphylococcus aureus ATCC 25923 assessed as zone of inhibition incubated for 24 hrs by disc diffusion method; assay type: functional
[23] = system: Staphylococcus aureus; test: Antibacterial activity against Staphylococcus aureus ATCC 16339 assessed as bacterial growth inhibition incubated for 24 hrs by broth micro dilution method; assay type: functional
[24] = system: Acinetobacter baumannii; test: Antibacterial activity against Acinetobacter baumannii ATCC 19606 assessed as bacterial growth inhibition incubated for 24 hrs by broth micro dilution method; assay type: functional
[25] = system: Klebsiella pneumoniae; test: Antibacterial activity against Klebsiella pneumoniae ATCC 14578 assessed as bacterial growth inhibition incubated for 24 hrs by broth micro dilution method; assay type: functional
[26] = system: Fusarium oxysporum; test: Antifungal activity against Fusarium oxysporum Momordicae assessed as fungal growth inhibition incubated for 3 days by broth micro dilution method; assay type: functional; details: 72 h, time 3 day
[27] = system: Acinetobacter baumannii; test: Antibacterial activity against Acinetobacter baumannii ATCC 15122 assessed as bacterial growth inhibition incubated for 24 hrs by broth micro dilution method; assay type: functional
[28] = system: Pseudomonas aeruginosa; test: Antibiofilm activity against Pseudomonas aeruginosa assessed as inhibition of biofilm formation incubated for 24 hrs by crystal violet method; assay type: functional, organism-based
[29] = system: Staphylococcus aureus; test: Antibiofilm activity against Staphylococcus aureus ATCC 25923 assessed as inhibition of biofilm formation incubated for 24 hrs by crystal violet method; assay type: functional, organism-based; details: ATCC 25923, 24 h
[30] = system: Candida albicans; test: Antimicrobial activity against Candida albicans assessed as microbial growth inhibition measured after 24 hrs by agar dilution method; assay type: functional
[31] = system: Pyricularia oryzae; test: Antifungal activity against Pyricularia oryzae assessed as fungal growth inhibition incubated for 16 hrs by inverted microscopy; assay type: functional
[32] = system: Escherichia coli; test: Antibacterial activity against Escherichia coli assessed as bacterial growth inhibition by agar dilution method; assay type: functional
[33] = system: Klebsiella aerogenes; test: Antibacterial activity against Enterobacter aerogenes assessed as bacterial growth inhibition by agar dilution method; assay type: functional
[34] = system: Bacillus subtilis; test: Antibacterial activity against Bacillus subtilis assessed as bacterial growth inhibition; assay type: functional, organism-based

Cn1c[n+](C)c(C(=O)c2nc(C(=O)O)cc3c2[nH]c2ccc(O)cc23)c1[S+](C)[O-] (stereo unspecified)
IC50 [1]: 4.8 µM

Oc1ccc2nc3oc4ccc5[nH]cc6cc[nH]c(c-3c2c1)c4c65
IC50 [2]: 51.1 µM | IC50 [1]: 3.2 µM | IC50 [3]: 12.8 µM | IC50 [4]: 6.4 µM

CC1(C)C(=O)N2c3ccccc3[C@@]3(C[C@H]4n5c(nc6ccccc6c5=O)C(=O)C(C)(C)[C@@]4(O)O3)[C@@H]2N1S(C)(=O)=O
EC50 [5]: 110 µM

Cc1cncc(Cc2c[nH]c3ccccc23)n1
MIC [6]: 35.8 µM | MIC [7]: 53.7 µM (≈ 12 µg/mL) | MIC [8]: 62.7 µM

C[N+](C)(C)CC(c1c[nH]c2ccccc12)c1c(O)c(O)c2c3c(nccc13)C=CN2 (stereo unspecified)
IC50 [1]: 19.9 µM

COc1ccc2[nH]c3cnc(-c4c[nH]c5cc(O)ccc45)c(C(=O)O)c3c2c1
diameter of the inhibition zone (DIZ) [9]: 7 mm | diameter of the inhibition zone (DIZ) [10]: 9 mm | diameter of the inhibition zone (DIZ) [11]: 10 mm

CC(C)[C@@H]1NC(=O)[C@@H](C[C@]2(O)c3ccccc3N3C(=O)[C@@H](C)N[C@H]32)n2c1nc1ccccc1c2=O
BIC [12]: 202.7 µM | BIC [13]: 168.9 µM

O=C(O)c1c(-c2c[nH]c3cc(O)ccc23)ncc2[nH]c3ccc(O)cc3c12
diameter of the inhibition zone (DIZ) [9]: 7 mm | diameter of the inhibition zone (DIZ) [10]: 9 mm | diameter of the inhibition zone (DIZ) [11]: 10 mm

CC(C)[C@@H]1NC(=O)[C@@H](C[C@@]2(O)c3ccccc3N3C(=O)C(C)(C)N[C@@H]32)n2c1nc1ccccc1c2=O
EC50 [5]: 129 µM

C=CC(C)(C)c1c(CCNC)c2ccc(Br)cc2n1CC=C(C)C
IC50 [14]: 17.9 µM | IC50 [15]: 5.9 µM | IC50 [16]: 7.7 µM

C=CC(C)(C)c1[nH]c2ccccc2c1/C=c1\[nH]c(=O)c2n(c1=O)CCC=2C1=c2c(=O)[nH]/c(=C\c3c(C(C)(C)C=C)[nH]c4ccccc34)c(=O)n2CC1
MIC [17]: 9 µM (≈ 6.24 µg/mL)

C[C@@H]1NC(=O)[C@@H](Cc2c[nH]c3ccccc23)n2c1nc1ccccc1c2=O [FUMIQUINAZOLINE F]
MIC [18]: 382 µM (≈ 137 µg/mL) | MIC [15]: 276 µM (≈ 99 µg/mL)

C/N=C1\NC(Cc2c[nH]c3cc(Br)ccc23)C(=O)N1C (stereo unspecified)
MIC [19]: 298 µM (≈ 100 µg/mL) | MIC [20]: 0.03 µM (≈ 0.0101 µg/mL)

O=C1N[C@@H](Cc2c[nH]c3ccccc23)C(=O)N2CCC[C@@H]12 [BREVIANAMIDE F]
MIC [17]: 44.1 µM (≈ 12.5 µg/mL) | diameter of the inhibition zone (DIZ) [21]: 25 mm | diameter of the inhibition zone (DIZ) [22]: 19 mm

C=CC(C)(C)c1c(CCNC)c2ccccc2n1CC=C(C)C
IC50 [15]: 22.6 µM | IC50 [16]: 7.7 µM

C[N+](C)(C)CC(c1c[nH]c2cc(Br)ccc12)c1c2ccnc3c2c(c2nc(CS(=O)(=O)[O-])oc12)NC=C3 (stereo unspecified)
MIC [3]: 27.5 µM (≈ 16 µg/mL)

CC(C)CC(=O)Nc1c(O)c(C(C[N+](C)(C)C)c2c[nH]c3cc(Br)ccc23)c2ccnc3c2c1NC=C3 (stereo unspecified)
IC50 [1]: 14.2 µM

O=C(c1c[nH]c2ccc(O)cc12)[C@H](O)[C@@H](O)C(=O)c1c[nH]c2ccc(O)cc12
IC50 [2]: 42.1 µM | IC50 [3]: 21 µM

O=C1NC(C(=O)c2c[nH]c3ccc(O)cc23)c2c(O)ccc3[nH]cc(c23)C1=O (stereo unspecified)
IC50 [2]: 42.6 µM | IC50 [3]: 21.3 µM

CSc1c(-c2c(-c3c[nH]c4ccc(O)cc34)c(=O)n3c4ccc(O)cc4c4ccnc2c43)[n+](C)cn1C
MIC [2]: 31.5 µM | IC50 [1]: 7.9 µM | IC50 [4]: 7.9 µM

Brc1ccc2c(-c3c[nH]c(-c4c[nH]c5ccccc45)n3)c[nH]c2c1 [NORTOPSENTIN C]
IC50 [1]: 6.8 µM

O=C(O)[C@@H]1Cc2c[nH]c3ccc4oc5nc6ccc(O)cc6c-5c(c4c23)N1
IC50 [1]: 2.8 µM | IC50 [4]: 11.1 µM

O=C1CN=C(c2c[nH]c3ccc(O)cc23)c2c(O)ccc3[nH]cc1c23
IC50 [2]: 48.3 µM

Brc1ccc2c(-c3nc(-c4c[nH]c5ccccc45)c[nH]3)c[nH]c2c1 [NORTOPSENTIN B]
IC50 [1]: 6.8 µM

O=C1N[C@]2(CO)c3[nH]c4ccccc4c3C[C@@H]1n1c2nc2ccccc2c1=O
MIC [23]: 16.8 µM (≈ 6.26 µg/mL) | MIC [24]: 16.8 µM (≈ 6.26 µg/mL) | MIC [25]: 16.8 µM (≈ 6.26 µg/mL) | MIC [26]: 4 µM (≈ 1.49 µg/mL) | MIC [27]: 16.8 µM (≈ 6.26 µg/mL)

Brc1ccc2c(-c3c[nH]c(-c4c[nH]c5cc(Br)ccc45)n3)c[nH]c2c1 [NORTOPSENTIN A]
IC50 [1]: 6.8 µM

Cn1cc(-c2csc(-c3cn(CCN)c4ccc(F)cc34)n2)c2ccccc21
IC50 [28]: 9.9 µM

Cn1cnc(C(=O)c2nc3c4c5c(nccc5c(C(C[N+](C)(C)C)c5c[nH]c6cc(Br)ccc56)c3o2)C=CN4)c1 (stereo unspecified)
MIC [3]: 26.8 µM

COCCn1cc(-c2nc(-c3cn(C)c4ccccc34)cs2)c2cc(F)ccc21
IC50 [29]: 0.4 µM

NC(=O)c1c(-c2c[nH]c3cc(O)ccc23)ncc2[nH]c3ccc(O)cc3c12
diameter of the inhibition zone (DIZ) [9]: 7 mm | diameter of the inhibition zone (DIZ) [10]: 9 mm | diameter of the inhibition zone (DIZ) [11]: 10 mm

C[C@@H]1N[C@H]2N(C1=O)c1ccccc1[C@@]2(O)C[C@H](C(=O)O)n1cnc2ccccc2c1=O
MIC [24]: 14.9 µM (≈ 6.26 µg/mL)

O=C1N[C@H]2c3nc4ccccc4c(=O)n3[C@H]1C[C@@]1(O)c3ccccc3N3C(=O)C4(CC4)N2[C@@H]31
MIC [30]: 22.6 µM (≈ 9.98 µg/mL)

CC(C)=CCn1cc(CC2NC(=O)C(C(C)C)NC2=O)c2ccccc21 (stereo unspecified)
MIC [31]: 0.36 µM (≈ 0.127 µg/mL)

CC(C)[C@H]1NC(=O)[C@@H]2CC3(C45C[C@H]6C(=O)N[C@H](C(C)C)C(=O)N6[C@H]4Nc4ccccc45)c4ccccc4N[C@@H]3N2C1=O (stereo partly specified)
MIC [32]: 44 µM (≈ 25 µg/mL) | MIC [33]: 44 µM (≈ 25 µg/mL)

CC(=O)[C@H]1N=C(c2c[nH]c3ccc(O)cc23)c2c(O)ccc3[nH]cc(c23)[C@H]1O
IC50 [3]: 85.2 µM

C[N+](C)(C)CC(c1c[nH]c2cc(Br)ccc12)c1c(O)c(O)c2c3c(nccc13)C=CN2 (stereo unspecified)
IC50 [2]: 0.5 µM | IC50 [1]: 0.5 µM | IC50 [18]: 4.2 µM | IC50 [15]: 4.2 µM | IC50 [4]: 0.5 µM | IC50 [34]: 4.2 µM

Cn1cc(C(=O)c2nc(C(=O)O)cc3c2[nH]c2ccc(O)cc23)[n+](C)c1
IC50 [2]: 45.7 µM | IC50 [1]: 45.7 µM | IC50 [3]: 22.8 µM | IC50 [4]: 11.4 µM

CSc1c(-c2c(-c3c[nH]c4ccc(O)cc34)c(=O)n3c4ccc(O)cc4c4cc(C(=O)O)nc2c43)[n+](C)cn1C
IC50 [1]: 14.5 µM | IC50 [4]: 14.5 µM

O=C(C1=N[C@@H](c2c[nH]c3cc(Br)ccc23)CN1)c1c[nH]c2ccccc12
MIC [7]: 15.4 µM (≈ 6.27 µg/mL)

O=C1Nc2ccccc2[C@@]1(O)Cc1cncc(Cc2c[nH]c3ccccc23)n1
MIC [6]: 27 µM | MIC [7]: 32.4 µM (≈ 12 µg/mL) | MIC [8]: 32.4 µM

C/N=C1\NC(Cc2c[nH]c3cc(Br)c(Br)cc23)C(=O)N1C (stereo unspecified)
MIC [20]: 2.4 µM (≈ 0.994 µg/mL)
